Source: patent publication US11850263B2, “Nanoparticles conjugated with vasoactive intestinal peptide antagonists” (Emory University, priority 2017, dated 2023)
Entries after “also recorded” stand apart in the source; their conditions may differ. No end group written: not given here.

Experiments:
[1] = tested on: T-cells from the anergic lymphoma patient; test: Culture of sorted lymphoma patient T-cells with anti-CD3/anti-CD28 beads (Ki67, PD-1 by flow cytometry); assay type: cell-based, human
Text: Using high-speed cell sorting subsets of T-cells were isolated defined by their levels of CD27 and CD28 expression from the patient with relapsed lymphoma and a healthy control. CD3 positive T-cells with each of the four phenotypes defined by CD27 and CD28 expression were sorted and cultured in vitro in the presence of anti-CD^3/anti-CD28 beads. Total T-cells from healthy donors had 100% expression of the Ki67 proliferation marker following four days of culture. However, the corresponding total T-cell population from the patient with anergic T-cells following treatment for lymphoma had only 90% of T-cells expressing the Ki67 marker.
Following the daily addition of 3 uM VIPhyb to these cultures, the proportion of Ki67 positive T-cells from the anergic lymphoma patient was increased to 100%. […] In contrast, the T-cell subsets lacking expression of either CD27 or CD28 or both markers had impaired proliferated response when incubated with the anti-CD3/CD28 beads.
Addition of the antagonist VIPhyb augmented T-cell proliferation in the subsets lacking either CD27 or CD28.

[2] = tested on: luciferase-expressing splenic T cells from B6 Luciferase mice; test: Bioluminescent MLR, B6 Luciferase splenic T cells with irradiated FVB splenic T cells (VIP, VIPhyb, VIPhyb-NP); assay type: cell-based, mouse; conditions: for effect on inhibitory effects of VIP on T cell proliferation in vitro: added on 3 consecutive days
Text: Splenocytes were extracted from WT and VIP-KO mice treated with B16-F0 and B16-F10 melanoma, and analyzed with flow cytometry for Granzyme B (GrZ B) and CD8 expression. VIPhyb was conjugated to a biocompatible, non-toxic 30 nm NP through emulsion polymerization and tested for purity and stability. A mixed lymphocyte reaction (MLR) using luciferase-expressing splenic T cells from B6 Luciferase mice were co-cultured with irradiated splenic T cells from FVB mice. VIP, VIPhyb, and VIPhyb-NP at concentrations of 0 ug/mL to 975 ug/mL were added to the MLR on 3 consecutive days and their effect on T cell proliferation assessed with bioluminescent imaging.

Bcl-2 = Bcl-2 blot of protein lysates from patient T cell expansion cultures; assay type: cell-based, human; conditions: lysates on days 7 and 14; actin loading control
Procedure: Protein lysates from patient T cell expansion cultures were prepared on days 7 and 14. Samples were run on an SDS-PAGE gel prior to transfer to a nitrocellulose membrane. The membrane was then probed for the pro-survival Bcl-2 protein, stripped, and then re-probed for actin as a loading control.

E.G7-OVA cells = test: E.G7-OVA lymphoma model, adoptive transfer of T cells expanded with the compounds; assay type: in vivo, Mice; conditions: OVA-expressing lymphoma model; T cells expanded 3 days with CD3/CD28 beads and IL-2, injected intravenously on day 7 of tumor growth
Procedure: Mice were injected subcutaneously with 5×10^5 E.G7-OVA cells that were allowed to grow for 7 days until a palpable tumor formed. During this period, OT-I, OT-II, and B6 T cells were expanded with CD3/CD28 beads in the presence of IL-2 and the indicated compounds for 3 days. On day 7 of tumor growth, mice were injected intravenously with a combination of expanded OT-I, OT-II, and B6 T cells (2×10^6 OT-I, 1×10^6 OT-II, and 2×10^6 B6 cells) or 2×10^6 B6 T cells as a control. Mice were then monitored for tumor growth that was calculated as (L×W^2)/2. FIG. 5B is a tumor growth curve showing the rate of growth among groups over time. Expansion of mouse T cells in the presence of Idelalisib, VIPhyb, or a combination of both enhances their therapeutic efficacy in an OVA-expressing lymphoma model.

PD-1 and PD-L1 = conditions: activated T cells and dendritic cells, respectively; cited from earlier work
[3] = tested on: luciferase B6 splenic T cells; test: One-way mixed lymphocyte reaction (MLR), luciferase B6 splenic T cells with irradiated FVB splenocytes; assay type: cell-based, mouse; conditions: for T-cell proliferation in MLR: 3 days, daily addition of VIP and/or VIPhyb, 0-10 mmol/L [sic]
Procedure: Proliferation of luciferase B6 splenic T cells cultured for 3 days in MLR with irradiated FVB splenocytes, with daily addition of VIP and/or VIPhyb to achieve the concentrations shown (0-10 mmol/L).
To explore the role of VIP signaling in allo-immune responses, one-way mixed lymphocyte reactions (MLR) were performed containing VIP and/or the antagonistic VIPhyb peptide. Addition of VIP decreased Luciferase T-cell proliferation in a dose-dependent manner, while adding VIPhyb increased T-cell proliferation.

DLBCL patient T cells = test: DLBCL patient T cell expansion for 14 days with CD3/CD28 beads and IL-2; assay type: cell-based, human
[4] = tested on: senescent T cells from a patient with lymphoma; test: 10 day in vitro culture of senescent lymphoma patient T cells with anti-CD3/CD28 beads, flow cytometric analysis; assay type: cell-based, human; conditions: for fraction of senescent T cells that lacked both CD27 and CD28: control 55.2%; for numbers of effector memory T cells (Tem): 10-day cultures; for in vitro expansion of senescent T cells: as single agent or in combination
Procedure: Monocytes were depleted from the T cell sample, as monocytes are known to inhibit T cell expansion in cultures containing anti-CD3/CD28 beads. The effect of a range of idelalisib concentrations were compared alone and in combination with 3 uM VIP peptide antagonist (VIPhyb) or 1 ug/ml mast cell chymase, an enzyme that degrades endogenous VIP on T cell activation, differentiation and proliferation. Numbers of viable T cells were measured during a 10 day in vitro cultures as well as the T cell differentiation and activation profiles, focusing on the relative numbers of T cells with a senescent phenotype in which co-stimulatory receptors CD27 and CD28 are both absent (CD27−CD28−), to an activated phenotype, in which either CD27, CD28, or both co-stimulatory receptors are present (CD27+CD28+).
Aliquots of frozen patient apheresis products or PBMC from ficolled whole blood were rapidly thawed and rested overnight in complete RPMI 1640 supplemented with 10% fetal bovine serum, 100 U/mL penicillin, 100 μg/mL streptomycin, and 50 μM 2-mercaptoethanol (complete media). The following day, red blood cells were removed from apheresis products by ficoll gradient. The leukocytes were then enriched for T cells using an EasySep human T cell enrichment kit according to manufacturer's instructions. Cells were plated in 200 μL of complete media in each well of a 96 well flat-bottom plate. Compounds were added at the indicated concentrations, and the DMSO concentration was normalized to 0.1% for all wells. Anti-CD3/CD28 beads were added at a 1:1 bead:cell ratio. On day 7 post-stimulation, cells from each treatment were transferred to new media. Fresh compounds and beads were then added, and the cells were cultured for an additional 3 days. On day 10 post-initial stimulation, the beads were removed, and the cells were stained for flow cytometric analysis.
Cells were washed twice in PBS. The cells were also stained using a fixable viability dye. Surface markers were then stained by adding fluorochrome-conjugated antibodies to CD3, CD4, CD8, CD27, CD28, CD45RA, CD45RO, PD-1, and CCR7. To assess proliferation, half the cells were evaluated for expression of Ki67. Ki67 staining was performed using a FoxP3 intracellular staining kit. Just prior to running samples, Accucheck™ counting beads were added to each tube. Samples were acquired on a BD FACS Aria, and analysis was performed using FlowJo™ software. Viable cells were used in the analysis. The absolute numbers of cells was calculated for each population according to instructions provided by the manufacturer of the Accucheck™ counting beads.

[5] = tested on: effector/memory CD8+ T cells and mature NK cells; conditions: mouse leukemia models; cited from earlier work
[6] = tested on: luciferase positive splenic T cells (B6 Luc); test: One-way allogeneic MLR, B6 Luc T cells with irradiated B6 Albino stimulator cells, IVIS average radiance; assay type: cell-based, mouse
Procedure: Bioluminescent image of a 96-well MLR plate.
A one-way allogeneic mixed lymphocyte reaction (MLR) between luciferase positive splenic T cells (B6 Luc) and 20 Gy irradiated stimulator cells from B6 Albino mice were co-cultured at 37° C. in a 96-well black plate. VIPhyb-NP in concentrations 0-2.5 uM was added to each well, followed by VIP in concentrations of 0-10 uM, 30 minutes later. This treatment was administered daily for 3 days, and an IVIS spectrum was used to quantify photon intensity, which correlates to cell number, on day 3. An increase in average radiance indicates an increase in T cell proliferation.

[7] = cited from earlier work
[8] = inclusion during T cell activation

KPRRPYTDNYTRLRKQMAVKKYLNSILN [VIPhyb, peptide antagonist of VIP]
levels of PD-1 expression ([1]; 3 uM VIPhyb, flow cytometry, compared with control cultures without VIP antagonist): decreased
T-cell proliferation in the subsets lacking either CD27 or CD28 ([1]; addition of VIPhyb, anti-CD3/CD28 beads): augmented
proportion of Ki67 positive T-cells ([1]; daily addition of 3 uM VIPhyb, total T-cells of anergic lymphoma patient, anti-CD3/anti-CD28 beads, four days of culture, 90% without VIPhyb): 100%
concentration of peak efficacy ([2]; T cell proliferation in MLR): 300 µg/mL
effect on inhibitory effects of VIP on T cell proliferation in vitro ([2]; 0 ug/mL to 975 ug/mL): counteracted the inhibitory effects of VIP
expression of Bcl-2 in lymphoma patient T cells (Bcl-2): increased
therapeutic efficacy of mouse T cells expanded in presence of the compounds (E.G7-OVA cells): enhances
expression of PD-1 and PD-L1 (PD-1 and PD-L1): down regulates
T-cell proliferation in MLR [3]: increased; also recorded: augmented
effect on VIP suppression of T-cell proliferation ([3]; VIP plus VIPhyb in MLR): reversed the suppressive effect of VIP; also recorded: mitigated the inhibitory effect
frequency of CD27+CD28+ cells (DLBCL patient T cells): increases
frequency of CD27−CD28− cells (DLBCL patient T cells): decreasing
fraction of senescent T cells that lacked both CD27 and CD28 ([4]; 3 uM VIPhyb): 35.7%
numbers of effector memory T cells (Tem) [4]: increased
in vitro expansion of senescent T cells [4]: significantly expanded
number of effector/memory CD8+ T cells and mature NK cells [5]: increases

VIPhyb-NP: VIPhyb with C-terminal linker (SEQ ID NO: 13) conjugated to a 30 nm poloxamer-stabilized polypropylene sulfide nanoparticle (KPRRPYTDNYTRLRKQMAVKKYLNSILNGGGGSC; also: conjugated to polypropylene sulfide nanoparticle)
average radiance (T cell proliferation) ([6]; VIPhyb-NP 0-2.5 uM daily for 3 days, read on day 3): significant dose-dependent increase
effect on immunosuppressive effects of VIP ([6]; VIPhyb-NP 0-2.5 uM, then VIP 0-10 uM 30 minutes later): able to counteract the immunosuppressive effects of VIP
dose dependence of effect on T cell proliferation ([2]; 0 ug/mL to 975 ug/mL): dose-dependent
effect on inhibitory effects of VIP on T cell proliferation in vitro ([2]; 0 ug/mL to 975 ug/mL): counteracted the inhibitory effects of VIP

CC[C@H](Nc1ncnc2[nH]cnc12)c1nc2cccc(F)c2c(=O)n1-c1ccccc1 [idelalisib, (S)-2-(1-(9H-purin-6-ylamino)propyl)-5-fluoro-3-phenylquinazolin-4(3H)-one]
expression of Bcl-2 in lymphoma patient T cells (Bcl-2): increased
therapeutic efficacy of mouse T cells expanded in presence of the compounds (E.G7-OVA cells): enhances
frequency of CD27+CD28+ cells (DLBCL patient T cells): increases
frequency of CD27−CD28− cells (DLBCL patient T cells): decreasing
number of viable T cells obtained (DLBCL patient T cells; [8]): increases
proportion of naïve and central memory cells (DLBCL patient T cells; [8]): increases
fraction of senescent T cells that lacked both CD27 and CD28 ([4]; 10 nM idelalisib): 16.1%
numbers of effector memory T cells (Tem) [4]: increased
in vitro expansion of senescent T cells [4]: significantly expanded
proportion of T cells co-expressing CD27 and CD28 ([4]; idelalisib 1 uM or 100 nM, compared to control cultures): significantly increased

HSDAVFTDNYTRLRKQMAVKKYLNSILN [VIP]
half-life in vivo [7]: less than two
T-cell proliferation in MLR [3]: decreased

B1: mast cell chymase: human mast cell chymase (CMA1), an enzyme that degrades endogenous VIP (protein, UniProt P23946 22-247, looked up)
Chymase: IIGGTECKPHSRPYMAYLEIVTSNGPSKFCGGFLIRRNFVLTAAHCAGRSITVTLGAHNITEEEDTWQKLEVIKQFRHPKYNTSTLHHDIMLLKLKEKASLTLAVGTLPFPSQFNFVPPGRMCRVAGWGRTGVLKPGSDTLQEVKLRLMDPQACSHFRDFDHNLQLCVGNPRKTKSAFKGDSGGPLLCAGVAQGIVSYGRSDAKPPAVFTRISHYRPWINQILQAN
fraction of senescent T cells that lacked both CD27 and CD28 ([4]; 1 μg per ml mast cell chymase): 37.4%
in vitro expansion of senescent T cells [4]: significantly expanded

B2: IL 12: IL 12 added to T-cell cultures (protein, UniProt P29459 23-219; P29460 23-328, looked up)
Interleukin-12 subunit alpha: RNLPVATPDPGMFPCLHHSQNLLRAVSNMLQKARQTLEFYPCTSEEIDHEDITKDKTSTVEACLPLELTKNESCLNSRETSFITNGSCLASRKTSFMMALCLSSIYEDLKMYQVEFKTMNAKLLMDPKRQIFLDQNMLAVIDELMQALNFNSETVPQKSSLEEPDFYKTKIKLCILLHAFRIRAVTIDRVMSYLNAS
Interleukin-12 subunit beta: IWELKKDVYVVELDWYPDAPGEMVVLTCDTPEEDGITWTLDQSSEVLGSGKTLTIQVKEFGDAGQYTCHKGGEVLSHSLLLLHKKEDGIWSTDILKDQKEPKNKTFLRCEAKNYSGRFTCWWLTTISTDLTFSVKSSRGSSDPQGVTCGAATLSAERVRGDNKEYEYSVECQEDSACPAAEESLPIEVMVDAVHKLKYENYTSSFFIRDIIKPDPPKNLQLKPLKNSRQVEVSWEYPDTWSTPHSYFSLTFCVQVQGKSKREKKDRVFTDKTSATVICRKNASISVRAQDRYYSSSWSEWASVPCS
proliferation fraction of T-cells, CD28 negative and CD27 negative subsets ([1]; addition of IL 12 to the cultures): significant impact in increasing the proliferation fraction of T-cells that were CD28 negative but not those that were CD27 negative
